The values below come from ChEMBL document CHEMBL4177607, “Antibacterial constituents of the plant family Amaryllidaceae” (2017).

What all share (type): functional
The test system of experiment [1] is Escherichia coli. As to the kind of experiment: Antibacterial activity against Escherichia coli after 24 hrs by broth microdilution method.
The subject of experiment [2] is Pseudomonas aeruginosa. The experiment in a line: Antibacterial activity against Pseudomonas aeruginosa after 24 hrs by broth microdilution method.
For experiment [3], the system named is Shigella flexneri. As to the kind of experiment: Antibacterial activity against Shigella flexneri after 24 hrs by broth microdilution method.
Experiment [4] has as its system Flavobacterium columnare. The experiment in a line: Antibacterial activity against Flavobacterium columnare ALM-00-173 after 24 hrs. The following applies: ALM-00-173, 24 h.
The test system of experiment [5] is Flavobacterium columnare. As to the kind of experiment: Antibacterial activity against Flavobacterium columnare BioMed after 24 hrs.
For experiment [6], the system named is Rhodococcus fascians. As to the kind of experiment: Antibacterial activity against Corynebacterium fascians assessed as diameter of inhibition zone at 10 mM after 48 to 72 hrs by paper disc method. The following applies: Rhodococcoides fascians; read-out: DIZ.
For experiment [7], the system named is Escherichia coli. As to the kind of experiment: Antibacterial activity against Escherichia coli assessed as diameter of inhibition zone at 1 mg/ml. The following applies: read-out: DIZ.
The test system of experiment [8] is Staphylococcus aureus. As to the kind of experiment: Antibacterial activity against Staphylococcus aureus assessed as diameter of inhibition zone at 1 mg/ml. The following applies: read-out: DIZ.
Experiment [9] relates to Edwardsiella ictaluri. The experiment in a line: Antibacterial activity against Edwardsiella ictaluri after 24 hrs.
In experiment [10] the test system is Staphylococcus aureus. As to the kind of experiment: Antibacterial activity against Staphylococcus aureus.

Structures are written as SMILES. ≈ marks a conversion by molar mass, not a printed value. Where only a bound is given, the exact number is not on record here.

For `CCCC(=O)Oc1ccc([C@@H]2CC(=O)c3c(O)c(C)c(OC(=O)CCC)c(C)c3O2)cc1`, the minimal inhibitory concentration (MIC) in experiment [1] came to 2 µg/mL (≈ 4.54 µM); in [2] it was 4 µg/mL (≈ 9.08 µM); in [3] it was 2 µg/mL (≈ 4.54 µM).

Turning to `CC(=O)O[C@H]1[C@H]2c3cc4c(cc3CN3CCC(=C[C@@H]1OC(C)=O)[C@H]23)OCO4.Cl`, the MIC in experiment [4] and in [5] was 40.7 µg/mL each time.

On to `Oc1ccc2c3c1c1cc4c(cc1c[n+]3CC2)OCO4`, for which the zone of inhibition at 10000 µM in experiment [6] was found to be 10 mm.

Turning to `COc1cc2c(cc1OC)[C@H]1[C@H]3C(=CC[C@H]1O[C@@H]2OC)CCN3C`, the zone of inhibition at 1000 µg/mL in experiment [7] and in experiment [8] was 14 mm each time.

For the compound `CCCCCCCC(=O)Oc1ccc([C@@H]2CC(=O)c3c(O)c(C)c(O)c(C)c3O2)cc1`, the MIC in experiment [1] came to 32 µg/mL (≈ 75 µM); in experiment [2] it was 16 µg/mL (≈ 37.5 µM); in experiment [3], 64 µg/mL (≈ 150 µM).

With `CC(=O)O[C@H]1[C@H]2c3cc4c(cc3CN3CCC(=C[C@@H]1OC(C)=O)[C@H]23)OCO4`, the MIC in experiment [9] was over 37 µg/mL; in experiment [4] it was 4 µg/mL; in experiment [5], 37 µg/mL; in experiment [10], over 37 µg/mL.

On to `c1cc2c3c(c1)c1cc4c(cc1c[n+]3CC2)OCO4` [ANHYDROLYCORINIUM CHLORIDE], for which the zone of inhibition at 10000 µM in [6] was found to be 30 mm.

Turning to `COc1cc2c[n+]3c4c(cc([O-])cc4c2cc1O)CC3`, the results for the MIC in [4] and in experiment [5] were 100 µM and 10 µM, respectively.

For the compound `Oc1cc2c3c(c1)c1cc4c(cc1c[n+]3CC2)OCO4`, in [6], the zone of inhibition at 10000 µM came to 0 mm. Moreover, the MIC was found to be 1 µM in [4] and 10 µM in experiment [5].

Take `c1cc2c3c(c1)-c1cc4c(cc1CN3CC2)OCO4` [ANHYDROLYCORINE]: the zone of inhibition at 10000 µM in [6] turned out to be 25 mm.

For the compound `CCCC(=O)Oc1ccc([C@@H]2CC(=O)c3c(O)c(C)c(O)c(C)c3O2)cc1`, the MIC in experiment [1] was 4 µg/mL (≈ 10.8 µM); in experiment [2], 8 µg/mL (≈ 21.6 µM); in experiment [3], 2 µg/mL (≈ 5.4 µM).

Consider `Cc1ccc(C(=O)O[C@H]2[C@H]3c4cc5c(cc4CN4CCC(=C[C@@H]2OC(=O)c2ccc(C)cc2)[C@H]34)OCO5)cc1`, for which the results for the minimum inhibitory concentration (MIC) in experiment [4] and in experiment [5] were 46.4 µg/mL and 22.9 µg/mL, respectively.

Turning to `Cc1ccc(C(=O)Oc2ccc([C@@H]3CC(=O)c4c(O)c(C)c(OC(=O)c5ccc(C)cc5)c(C)c4O3)cc2)cc1`, the MIC was determined as 8 µg/mL (≈ 14.9 µM) in experiment [1], 16 µg/mL (≈ 29.8 µM) in experiment [2] and 8 µg/mL (≈ 14.9 µM) in experiment [3].

For the compound `COc1cc2c(c(O)c1C)C(=O)C(O)C(c1ccc(O)cc1)O2` (stereo unspecified), the minimal inhibitory concentration (MIC) worked out at 16 µg/mL (≈ 50.6 µM) in experiment [1], 32 µg/mL (≈ 101 µM) in experiment [2] and 4 µg/mL (≈ 12.6 µM) in experiment [3].

As to `Cc1ccc(C(=O)O[C@H]2[C@H]3c4cc5c(cc4CN4CCC(=C[C@@H]2OC(=O)c2ccc(C)cc2C)[C@H]34)OCO5)c(C)c1`, the results for the MIC in experiment [4] and in experiment [5] were 5.5 µg/mL and 30.4 µg/mL, respectively.

Regarding `CCCCCCCCCCCC(=O)Oc1ccc([C@@H]2CC(=O)c3c(O)c(C)c(O)c(C)c3O2)cc1`, the MIC in experiment [1] stood at 8 µg/mL (≈ 16.6 µM); in [2] it was 16 µg/mL (≈ 33.2 µM); in [3] it was 8 µg/mL (≈ 16.6 µM).

Regarding `O=C1N[C@@H]2C(=C[C@H](O)[C@@H](O)[C@H]2O)c2cc3c(cc21)OCO3`, the zone of inhibition at 1000 µg/mL in experiment [7] worked out at 12 mm; in experiment [8] it was 11 mm.

Regarding `COc1c(C)c(O)c2c(=O)cc(-c3ccc(O)cc3)oc2c1C` [SIDEROXYLIN], the MIC in experiment [1] was found to be 32 µg/mL (≈ 102 µM); in experiment [2], 64 µg/mL (≈ 205 µM); in experiment [3] it was 8 µg/mL (≈ 25.6 µM).

For `[O-]c1ccc2c3c1c1cc4c(cc1c[n+]3CC2)OCO4`, the MIC in [4] amounted to 10 µM; in experiment [5], 100 µM.

On to `O=C1C=C2CCN3Cc4cc5c(cc4[C@H]([C@@H]1O)[C@@H]23)OCO5`, for which the minimum inhibitory concentration (MIC) in experiment [9], in experiment [4], in experiment [5] and in [10] was over 26 µg/mL in each case.

`O=C(O[C@H]1[C@H]2c3cc4c(cc3CN3CCC(=C[C@@H]1OC(=O)c1ccc(Cl)cc1)[C@H]23)OCO4)c1ccc(Cl)cc1`: the minimum inhibitory concentration (MIC) in experiment [4] is 31 µg/mL; in [5], 5.6 µg/mL.

With `Cc1cccc(C(=O)O[C@H]2[C@H]3c4cc5c(cc4CN4CCC(=C[C@@H]2OC(=O)c2cccc(C)c2C)[C@H]34)OCO5)c1C`, the values for the minimal inhibitory concentration (MIC) in experiment [4] and in experiment [5] were 30.4 µg/mL and 55.2 µg/mL, respectively.

As to `Oc1cc2c3c(c1)-c1cc4c(cc1CN3CC2)OCO4`, the zone of inhibition at 10000 µM in experiment [6] amounted to 0 mm.

Consider `CC(=O)O[C@H]1[C@H]2c3cc4c(cc3CN3CCC(=C[C@@H]1O)[C@H]23)OCO4`, for which the minimum inhibitory concentration (MIC) in experiment [9] and in [10] was over 33 µg/mL throughout.
